Data published in patent US7396837B2, “Antitumoral analogs of lamellarins” (Pharma Mar, S.A.U., priority 2002, dated 2008).
Read-outs that look alike come from different tables or passages of the source.

Columns and labels:
K-562 = assay: SRB colorimetric cell growth inhibition assay, K-562; assay type: cell-based; conditions: Homo sapiens, K562, K-562; for GI50: GI=growth inhibition, read-out: GI50 K-562; for CC50: cell killing (cytotoxic effect), read-out: LC50 K-562; for IC (TGI): total growth inhibition (cytostatic effect), read-out: TGI K-562
In short: (§1)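 Human tumour cells were exposed continuously to the test sample, and growth and viability were quantified by sulforhodamine B staining. Means ± SD came from triplicate wells, and GI, TGI (cytostatic) and LC (cell killing) parameters were derived.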

A-549 = assay: SRB colorimetric cell growth inhibition assay, A-549; assay type: cell-based; conditions: Homo sapiens, A549, A-549; for GI50: GI=growth inhibition, read-out: GI50 A-549; for CC50: cell killing (cytotoxic effect), read-out: LC50 A-549; for IC (TGI): total growth inhibition (cytostatic effect), read-out: TGI A-549
In short: as §1

SK-MEL-28 = assay: SRB colorimetric cell growth inhibition assay, SK-MEL-28; assay type: cell-based; conditions: Homo sapiens, SK-MEL-28, MEL-28; for GI50: GI=growth inhibition, read-out: GI50 MEL-28; for CC50: cell killing (cytotoxic effect), read-out: LC50 MEL-28; for IC (TGI): total growth inhibition (cytostatic effect), read-out: TGI MEL-28
In short: as §1

HT-29 = assay: SRB colorimetric cell growth inhibition assay, HT-29; assay type: cell-based; conditions: Homo sapiens; for CC50: cell killing (cytotoxic effect), read-out: LC50 HT-29; for GI50: GI=growth inhibition, read-out: GI50 HT-29; for IC (TGI): total growth inhibition (cytostatic effect), read-out: TGI HT-29
In short: as §1

LoVo = assay: SRB colorimetric cell growth inhibition assay, LoVo; assay type: cell-based; conditions: Homo sapiens; for CC50: cell killing (cytotoxic effect), read-out: LC50 LOVO; for GI50: GI=growth inhibition, read-out: GI50 LOVO; for IC (TGI): total growth inhibition (cytostatic effect), read-out: TGI LOVO
In short: as §1

LoVo-Dox = assay: SRB colorimetric cell growth inhibition assay, LoVo-Dox (MDR); assay type: cell-based; conditions: Homo sapiens, LOVO-DOX; for GI50: GI=growth inhibition, read-out: GI50 LOVO-DOX; for CC50: cell killing (cytotoxic effect), read-out: LC50 LOVO-DOX; for IC (TGI): total growth inhibition (cytostatic effect), read-out: TGI LOVO-DOX
In short: as §1

DU-145 = assay: SRB colorimetric cell growth inhibition assay, DU-145; assay type: cell-based; conditions: Homo sapiens; for CC50: cell killing (cytotoxic effect), read-out: LC50 DU-145; for GI50: GI=growth inhibition, read-out: GI50 DU-145; for IC (TGI): total growth inhibition (cytostatic effect), read-out: TGI DU-145
In short: as §1

LNCaP = assay: SRB colorimetric cell growth inhibition assay, LNCaP; assay type: cell-based; conditions: Homo sapiens, LNCaP, LN-caP; for GI50: GI=growth inhibition, read-out: GI50 LN-caP; for CC50: cell killing (cytotoxic effect), read-out: LC50 LN-caP; for IC (TGI): total growth inhibition (cytostatic effect), read-out: TGI LN-caP
In short: as §1

SK-BR-3 = assay: SRB colorimetric cell growth inhibition assay, SK-BR-3; assay type: cell-based; conditions: Homo sapiens; for CC50: cell killing (cytotoxic effect), read-out: LC50 SK-BR-3; for GI50: GI=growth inhibition, read-out: GI50 SK-BR-3; for IC (TGI): total growth inhibition (cytostatic effect), read-out: TGI SK-BR-3
In short: as §1

IGROV = assay: SRB colorimetric cell growth inhibition assay, IGROV; assay type: cell-based
In short: as §1

IGROV-ET = assay: SRB colorimetric cell growth inhibition assay, IGROV-ET (ET-743 resistant); assay type: cell-based; conditions: Homo sapiens, IGROV-ET; for GI50: GI=growth inhibition, read-out: GI50 IGROV-ET; for CC50: cell killing (cytotoxic effect), read-out: LC50 IGROV-ET; for IC (TGI): total growth inhibition (cytostatic effect), read-out: TGI IGROV-ET
In short: as §1

PANC-1 = assay: SRB colorimetric cell growth inhibition assay, PANC-1; assay type: cell-based; conditions: Homo sapiens; for CC50: cell killing (cytotoxic effect), read-out: LC50 PANC-1; for IC (TGI): total growth inhibition (cytostatic effect), read-out: TGI PANC-1; for GI50: GI=growth inhibition, read-out: GI50 PANC-1
In short: as §1

human topoisomerase I = molecular target: T1, human topoisomerase I (Homo sapiens, UniProt P11387); assay: Topoisomerase I DNA relaxation assay (supercoiled plasmid DNA); assay type: biochemical; conditions: supercoiled plasmid DNA, each compound tested at 1 μM, agarose gel with ethidium bromide
T1 sequence (P11387 1-765): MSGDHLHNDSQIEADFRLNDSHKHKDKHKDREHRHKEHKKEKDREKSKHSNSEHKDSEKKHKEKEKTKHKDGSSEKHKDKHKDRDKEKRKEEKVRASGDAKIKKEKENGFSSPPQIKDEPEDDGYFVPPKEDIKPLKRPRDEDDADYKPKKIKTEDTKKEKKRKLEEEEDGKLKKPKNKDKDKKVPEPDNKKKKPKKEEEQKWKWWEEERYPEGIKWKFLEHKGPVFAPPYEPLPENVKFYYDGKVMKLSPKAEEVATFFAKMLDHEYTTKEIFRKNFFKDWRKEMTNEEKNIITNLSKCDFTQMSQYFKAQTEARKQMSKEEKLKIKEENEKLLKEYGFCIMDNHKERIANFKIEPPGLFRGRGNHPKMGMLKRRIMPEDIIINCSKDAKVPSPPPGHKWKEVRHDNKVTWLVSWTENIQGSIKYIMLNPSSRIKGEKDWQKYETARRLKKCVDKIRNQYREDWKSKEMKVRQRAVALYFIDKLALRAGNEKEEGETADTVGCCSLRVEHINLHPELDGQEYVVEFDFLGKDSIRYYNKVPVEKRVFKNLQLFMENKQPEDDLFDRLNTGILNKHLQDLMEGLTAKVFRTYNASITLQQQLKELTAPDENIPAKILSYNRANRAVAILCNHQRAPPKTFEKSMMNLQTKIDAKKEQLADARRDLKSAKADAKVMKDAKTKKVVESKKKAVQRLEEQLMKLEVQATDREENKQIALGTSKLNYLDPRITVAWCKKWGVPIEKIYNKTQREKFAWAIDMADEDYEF
In short: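 Supercoiled plasmid DNA was relaxed by human topoisomerase I with or without test compound at 1 μM. Products were resolved by agarose gel electrophoresis with ethidium bromide staining.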

[1] = Homo sapiens, IGROV; cell killing (cytotoxic effect); read-out: LC50 IGROV
[2] = Homo sapiens, IGROV; GI=growth inhibition; read-out: GI50 IGROV
[3] = Homo sapiens, IGROV; total growth inhibition (cytostatic effect); read-out: TGI IGROV

## COc1cc(-c2c3n(c4c(=O)oc5cc(OC(=O)[C@H](C)NC(=O)[C@H](C)NC(=O)OC(C)(C)C)c(OC)cc5c24)CCc2cc(OC(=O)[C@H](C)NC(=O)[C@H](C)NC(=O)OC(C)(C)C)c(OC)cc2-3)ccc1OC(=O)[C@H](C)NC(=O)[C@H](C)NC(=O)OC(C)(C)C [Compound 7]
K-562
  GI50: 596 nM
  CC50: 8140 nM
  IC (TGI): 2680 nM
A-549
  GI50: 969 nM
  CC50: 8140 nM
  IC (TGI): 2960 nM
SK-MEL-28
  GI50: 652 nM
  CC50: 3750 nM
  IC (TGI): 1640 nM
HT-29; HT-29, HT-29
  CC50: 8140 nM
HT-29; HT-29
  GI50: 871 nM
  IC (TGI): 3310 nM
LoVo; LoVo
  CC50: 8140 nM
LoVo; LOVO
  GI50: 2000 nM
  IC (TGI): 5050 nM
LoVo-Dox
  GI50: 3660 nM
  CC50: 8140 nM
  IC (TGI): 8140 nM
DU-145; DU-145, DU-145
  CC50: 5410 nM
DU-145; DU-145
  GI50: 993 nM
  IC (TGI): 2310 nM
LNCaP
  GI50: 425 nM
  CC50: 3610 nM
  IC (TGI): 1360 nM
SK-BR-3; SK-BR-3, SK-BR-3
  CC50: 5980 nM
SK-BR-3; SK-BR-3
  GI50: 1140 nM
  IC (TGI): 2610 nM
IGROV; [1]
  CC50: 5790 nM
IGROV; Homo sapiens; IGROV; GI=growth inhibition; read-out: GI50 IGROV
  GI50: 1230 nM
IGROV; Homo sapiens; IGROV; total growth inhibition (cytostatic effect); read-out: TGI IGROV
  IC (TGI): 2670 nM
IGROV-ET
  GI50: 1860 nM
  CC50: 8140 nM
  IC (TGI): 4580 nM
PANC-1; PANC-1, PANC-1
  CC50: 8040 nM
  IC (TGI): 3310 nM
PANC-1; PANC-1
  GI50: 1360 nM

## COc1cc(-c2c3n(c4c(=O)oc5cc(OC(=O)CCc6ccccc6)c(OC)cc5c24)CCc2cc(OC(=O)CCc4ccccc4)c(OC)cc2-3)ccc1OC(=O)CCc1ccccc1 [Compound 11]
A-549
  GI50: 128 nM
  CC50: 11100 nM
  IC (TGI): 1540 nM
SK-MEL-28
  GI50: 200 nM
  CC50: 6180 nM
  IC (TGI): 1180 nM
HT-29; HT-29, HT-29
  GI50: 38.4 nM
  CC50: 8230 nM
  IC (TGI): 175 nM
LoVo; LoVo
  GI50: 42.4 nM
  CC50: 10400 nM
  IC (TGI): 1160 nM
LoVo-Dox
  GI50: 11100 nM
  CC50: 11100 nM
  IC (TGI): 11100 nM
DU-145; DU-145, DU-145
  GI50: 35.3 nM
  CC50: 2780 nM
  IC (TGI): 151 nM
SK-BR-3; SK-BR-3, SK-BR-3
  GI50: 187 nM
  CC50: 6660 nM
  IC (TGI): 1200 nM
IGROV; [2]
  GI50: 267 nM
IGROV; [1]
  CC50: 5880 nM
IGROV; [3]
  IC (TGI): 1140 nM
IGROV-ET
  GI50: 5530 nM
  CC50: 11100 nM
  IC (TGI): 11100 nM
PANC-1; PANC-1, PANC-1
  GI50: 214 nM
  CC50: 11100 nM
  IC (TGI): 1760 nM
Human topoisomerase I
  stimulation of DNA cleavage by topoisomerase I / inhibition of topoisomerase I (nicked DNA band) in DNA relaxation assay: inactive

## COc1cc(-c2c3c4cc(OC)c(OC(=O)[C@H](N)C(C)C)cc4oc(=O)c3n3ccc4cc(OC(=O)[C@H](N)C(C)C)c(OC)cc4c23)ccc1OC(=O)[C@H](N)C(C)C [Compound 17]
K-562
  GI50: 53.6 nM
  CC50: 2500 nM
  IC (TGI): 277 nM
A-549
  GI50: 207 nM
  CC50: 8480 nM
  IC (TGI): 663 nM
SK-MEL-28
  GI50: 51.8 nM
  CC50: 766 nM
  IC (TGI): 171 nM
HT-29; HT-29, HT-29
  GI50: 342 nM
  CC50: 8780 nM
  IC (TGI): 686 nM
LoVo; LoVo
  GI50: 216 nM
  CC50: 816 nM
  IC (TGI): 420 nM
LoVo-Dox
  GI50: 384 nM
  CC50: 5290 nM
  IC (TGI): 1330 nM
DU-145; DU-145, DU-145
  GI50: 48.7 nM
  CC50: 2300 nM
  IC (TGI): 228 nM
LNCaP
  GI50: 132 nM
  CC50: 599 nM
  IC (TGI): 281 nM
SK-BR-3; SK-BR-3, SK-BR-3
  GI50: 80.3 nM
  CC50: 1220 nM
  IC (TGI): 286 nM
IGROV; [2]
  GI50: 105 nM
IGROV; [1]
  CC50: 4930 nM
IGROV; [3]
  IC (TGI): 405 nM
IGROV-ET
  GI50: 162 nM
  CC50: 8780 nM
  IC (TGI): 544 nM
PANC-1; PANC-1, PANC-1
  GI50: 206 nM
  CC50: 8530 nM
  IC (TGI): 1520 nM
Human topoisomerase I
  stimulation of DNA cleavage by topoisomerase I / inhibition of topoisomerase I (nicked DNA band) in DNA relaxation assay: stimulated DNA cleavage by the enzyme
